Our source for the EC50 and IC50 values is patent US10501479B2, “Benzenesulfonyl-asymmetric ureas and medical uses thereof” (HELSINN HEALTHCARE SA, priority 2016, dated 2019).

In experiment [1] the target is T1, recombinant human ghrelin receptor (HEK293/GRLN) (Homo sapiens, UniProt Q92847).
T1 construct: expressed in transfected cells
The experiment is described as follows: Ghrelin inverse agonist potency (EC50) with IP-1 (IP-One HTRF) assay. In kind it is cell-based. Conditions: IP-1 assay. The method, then:
Evaluation of Ghrelin Inverse Agonist Potency (EC50) with IP-1 Assay:
HEK293 cells stably expressing recombinant human ghrelin receptor (HEK293/GRLN) were used in the IP-One HTRF assay. One day before the test, cells were seeded at a density of 1.5×10^4/well in a Matrigel® coated 384-well plate with 30 μL of complete Dulbecco's Modified Eagle's Medium and incubated at 37° C. in 5% CO2 for 18-22 hours. On the test day, the medium was removed by centrifugation at 600 rpm for 30 seconds, and 20 μL of stimulation buffer containing 1x tested compound was added with Bravo (Agilent technologies). The plate was then incubated at 37° C. 5% CO2 for 1 hour. After the incubation, 5 μL of IP1-d2 and 5 μL of Tb-Cryp were added to all wells using multidrop Combi(Thermo). After additional incubation at room temperature for 1 hour, the plates were read on Envision with 620 and 665 (Perkin Elmer).
(In general: Time-resolved FRET reads energy transfer from a long-lived donor to a nearby acceptor.)

In experiment [2] the target is T2, GHSR-1a (HEK293/GHSR1a cell line) (Homo sapiens, UniProt Q92847).
T2 construct: expressed in transfected cells; host or cells: HEK293/GHSR1a cell line
The experiment is described as follows: Ghrelin antagonist potency (IC50) with calcium FLIPR assay, ghrelin 10 nM. It is filed as cell-based. Conditions: ghrelin antagonist potency. The method, then: Evaluation of Ghrelin Agonist (EC50) and Antagonist Potency (IC50) with Calcium FLIPR Assay:
The intracellular calcium assay was carried out in a 384-well format FLIPR™ (Molecular Device) HEK293/GHSR1a cell line. Cells were seeded 24 hr prior to the experiments at an optimal density per well. Preincubation with selected calcium dye lasted for 30-60 min at room temperature or 37° C. Test compounds, dissolved in DMSO, were added at the appropriate time and incubated for 15 min followed by the addition of ghrelin with FlexStation or FLIPR. Relative fluorescence was monitored by the FLIPR™ Molecular Device. EC50 and IC50 values were estimated from dose-response data using GraphPad Prism software. To check for GHSR-1a agonism, the compound was added at t=20 sec. and the calcium response was followed for 2 minutes. To check for GHSR-1a antagonism, the compound and Ghrelin (10 nM) were added to the cells at t=20 sec. and the calcium response was measured for 2 minutes. The potency of the antagonist was calculated by its ability to reduce the ghrelin response. Dose-response curves were made for relevant antagonists.

[3] abbreviates: inverse agonist potency, read-out: EC50 (Activity).
The mark [4] stands for this setting: ghrelin inverse agonist potency, read-out: Activity EC50.

Read-outs that look alike come from different tables or passages of the source.

T1 sequence (Q92847 whole entry): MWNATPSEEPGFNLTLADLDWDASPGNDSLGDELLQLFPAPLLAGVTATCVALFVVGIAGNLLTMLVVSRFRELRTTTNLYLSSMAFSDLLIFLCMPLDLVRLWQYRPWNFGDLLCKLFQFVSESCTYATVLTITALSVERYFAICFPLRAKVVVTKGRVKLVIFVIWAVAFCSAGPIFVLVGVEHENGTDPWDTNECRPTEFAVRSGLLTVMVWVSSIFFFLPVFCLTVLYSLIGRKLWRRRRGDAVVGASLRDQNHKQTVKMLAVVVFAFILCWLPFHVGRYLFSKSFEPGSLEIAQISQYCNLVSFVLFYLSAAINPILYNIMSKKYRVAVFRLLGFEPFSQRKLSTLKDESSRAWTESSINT
T2 sequence (Q92847 whole entry): as above

In general, EC50 refers to the midpoint of the concentration-response curve. For orientation: IC50 means the concentration that inhibits the measured activity by half. Regarding `CCOC(=O)N1CCc2cc(CS(=O)(=O)c3ccc(NC(=O)N[C@@H](C)c4cccc(Cl)c4Cl)cc3)ccc2C1` [H1055, ethyl (S)-6-(((4-(3-(1-(2,3-dichlorophenyl)ethyl)ureido)phenyl)sulfonyl)methyl)-3,4-dihydroisoquinoline-2(1H)-carboxylate], in experiment [1] (setting [3]), the EC50 was determined as 516 nM. Besides, the IC50 in experiment [2] (read-out: IC50 (Activity)) worked out at 4470 nM.
On the same counts, the results for `CC(NC(=O)Nc1ccc(S(=O)(=O)Cc2ccc3c(c2)CCNC3)cc1)c1cccc(Cl)c1` (stereo not shown) [H1042, 1-(1-(3-chlorophenyl)ethyl)-3-(4-(((1,2,3,4-tetrahydroisoquinolin-6-yl)methyl)sulfonyl)phenyl)urea] are 122 nM and 36.6 nM.
Consider `O=C(NCc1cccc(Cl)c1Cl)Nc1ccc(S(=O)(=O)Cc2ccc3c(c2)CCNC3)cc1` [H1040, 1-(2,3-dichlorobenzyl)-3-(4-(((1,2,3,4-tetrahydroisoquinolin-6-yl)methyl)sulfonyl)phenyl)urea], for which the EC50 in experiment [1] (setting [3]) was determined as 164 nM. In experiment [2] (read-out: IC50 (Activity)), the IC50 was 31.8 nM.
For the compound `COc1ccc([C@H](C)NC(=O)Nc2ccc(S(=O)(=O)Nc3ccc(CCN)cc3)cc2)c(Cl)c1Cl` [H0951, (S)-N-(4-(2-aminoethyl)phenyl)-4-(3-(1-(2,3-dichloro-4-methoxyphenyl)ethyl)ureido) benzenesulfonamide], the EC50 in experiment [1] (setting [3]) is 32.7 nM. The IC50 in experiment [2] (read-out: IC50 (Activity)) is 83.8 nM.
Consider `CC(c1ccccc1)N(O)C(=O)Nc1ccc(S(=O)(=O)Cc2ccc3c(c2)CNC3)cc1` (stereo not shown) [H1526, 1-hydroxy-3-(4-((isoindolin-5-ylmethyl)sulfonyl)phenyl)-1-(1-phenylethyl)urea], for which the EC50 in experiment [1] (setting [4]) turned out to be 21.9 nM. Also, the IC50 in experiment [2] (read-out: Activity IC50) turned out to be 31.9 nM.
`C[C@H](NC(=O)Nc1ccc(S(=O)(=O)Nc2ccc(-c3cnc[nH]3)cc2)cc1)c1cccc(Cl)c1Cl` [H1109, (S)-N-(4-(1H-imidazol-5-yl)phenyl)-4-(3-(1-(2,3-dichlorophenyl)ethyl)ureido) benzenesulfonamide]: the EC50 in experiment [1] (setting [3]) was found to be 136 nM. Further, the IC50 in experiment [2] (read-out: IC50 (Activity)) came out at 427 nM.
With `CC(C)CNC(=O)Nc1ccc(S(=O)(=O)Cc2ccc3c(c2)CN(C)C3)cc1` [H1236, 1-isobutyl-3-(4-(((2-methylisoindolin-5-yl)methyl)sulfonyl)phenyl)urea], the EC50 in experiment [1] (setting [3]) stood at 507 nM. Also, the IC50 in experiment [2] (read-out: IC50 (Activity)) was 1640 nM.
For the compound `C[C@H](NC(=O)Nc1ccc(S(=O)(=O)Nc2ccc3[nH]ncc3c2)cc1)c1cccc(Cl)c1Cl` [H1106, (S)-4-(3-(1-(2,3-dichlorophenyl)ethyl)ureido)-N-(1H-indazol-5-yl) benzenesulfonamide], the EC50 in experiment [1] (setting [3]) was 862 nM. Besides, in experiment [2] (read-out: IC50 (Activity)), the IC50 came out at 1430 nM.
On the same counts, the results for `C[C@H](NC(=O)Nc1ccc(S(=O)(=O)Nc2ccc(C(C)(C)N)cc2)cc1)c1cccc(Cl)c1Cl` [H1074, (S)-N-(4-(2-aminopropan-2-yl)phenyl)-4-(3-(1-(2,3-dichlorophenyl)ethyl)ureido) benzenesulfonamide] are 657 nM and 3250 nM.
Turning to `C[C@H](NC(=O)Nc1ccc(S(=O)(=O)Cc2ccc(CN)cc2)cc1)c1cccc(Cl)c1Cl` [H1051, (S)-1-(4-((4-(aminomethyl)benzyl)sulfonyl)phenyl)-3-(1-(2,3-dichlorophenyl)ethyl)urea], in experiment [1] (setting [3]), the EC50 is 116 nM. In experiment [2] (read-out: IC50 (Activity)), the IC50 is 53.7 nM.
On the same counts, the results for `C[C@H](NC(=O)Nc1ccc(S(=O)(=O)Cc2ccc(O)cc2)cc1)c1cccc(Cl)c1Cl` [H1099, (S)-1-(1-(2,3-dichlorophenyl)ethyl)-3-(4-((4-hydroxybenzyl)sulfonyl)phenyl)urea] are 1140 nM and 8670 nM.
As for `CC(NC(=O)Nc1ccc(S(=O)(=O)Cc2ccc3c(c2)CN(C)C3)cc1)C1CC1` (stereo not shown) [H1244, 1-(1-cyclopropylethyl)-3-(4-(((2-methylisoindolin-5-yl)methyl)sulfonyl)phenyl)urea], in experiment [1] (setting [3]), the EC50 turned out to be 356 nM. Besides, in experiment [2] (read-out: IC50 (Activity)), the IC50 was found to be 1280 nM.
Taken in the same sequence, the figures for `O=C(NCc1cccc(Cl)c1Cl)Nc1ccc(S(=O)(=O)Cc2ccc3c(c2)CNCC3)cc1` [H1044, 1-(2,3-dichlorobenzyl)-3-(4-(((1,2,3,4-tetrahydroisoquinolin-7-yl)methyl)sulfonyl)phenyl)urea] were 143 nM and 53.1 nM.
For `C[C@H](NC(=O)Nc1ccc(S(=O)(=O)Nc2ccc3c(c2)CNCC3)cc1)c1cccc(Cl)c1Cl` [H1049, (S)-4-(3-(1-(2,3-dichlorophenyl)ethyl)ureido)-N-(1,2,3,4-tetrahydroisoquinolin-7-yl)benzenesulfonamide], in experiment [1] (setting [3]), the EC50 worked out at 29.6 nM. The IC50 in experiment [2] (read-out: IC50 (Activity)) was 16.3 nM.
In the case of `CC(NC(=O)Nc1ccc(S(=O)(=O)Cc2ccc3c(c2)CCNC3)cc1)c1ccccc1Cl` (stereo not shown) [H1041, 1-(1-(2-chlorophenyl)ethyl)-3-(4-(((1,2,3,4-tetrahydroisoquinolin-6-yl)methyl)sulfonyl)phenyl)urea], the EC50 in experiment [1] (setting [3]) stood at 55.5 nM. Besides, the IC50 in experiment [2] (read-out: IC50 (Activity)) stood at 17.4 nM.
Consider `C[C@H](NC(=O)Nc1ccc(S(=O)(=O)Cc2ccc3c(c2)CCN(Cc2ccccc2)C3)cc1)c1cccc(Cl)c1Cl` [H1072, (S)-1-(4-(((2-benzyl-1,2,3,4-tetrahydroisoquinolin-6-yl)methyl)sulfonyl)phenyl)-3-(1-(2,3-dichlorophenyl)ethyl)urea], for which, in experiment [1] (setting [3]), the EC50 was determined as 21.9 nM. The IC50 in experiment [2] (read-out: IC50 (Activity)) came out at 123 nM.
For `COc1ccc(C(C)NC(=O)Nc2ccc(S(=O)(=O)Cc3ccc4c(c3)CNC4)cc2)cc1Cl` (stereo not shown) [H1477, 1-(1-(3-chloro-4-methoxyphenyl)ethyl)-3-(4-((isoindolin-5-ylmethyl)sulfonyl)phenyl)urea], the EC50 in experiment [1] (setting [4]) worked out at 17.4 nM. In addition, in experiment [2] (read-out: Activity IC50), the IC50 came to 36.9 nM.
Take `CC(NC(=O)Nc1ccc(S(=O)(=O)Cc2ccc(CO)cc2)cc1)c1cccc2ccccc12` (stereo not shown) [H1132, 1-(4-((4-(hydroxymethyl)benzyl)sulfonyl)phenyl)-3-(1-(naphthalen-1-yl)ethyl)urea]: in experiment [1] (setting [3]), the EC50 was 219 nM. In addition, in experiment [2] (read-out: IC50 (Activity)), the IC50 was 574 nM.
With `C[C@H](NC(=O)Nc1ccc(S(=O)(=O)Nc2ccc(CC(C)(C)N)cc2)cc1)c1ccc(C#CC2CC2)c(Cl)c1Cl` [H0907, (S)-N-(4-(2-amino-2-methylpropyl)phenyl)-4-(3-(1-(2,3-dichloro-4-(cyclopropylethynyl)phenyl)ethyl)ureido)benzenesulfonamide], the EC50 in experiment [1] (setting [3]) was found to be 1610 nM. Also, the IC50 in experiment [2] (read-out: IC50 (Activity)) was determined as 23.5 nM.
Taken in the same sequence, the figures for `COc1ccc(CNC(=O)Nc2ccc(S(=O)(=O)Cc3ccc4c(c3)CNC4)cc2)nc1` [H1212, 1-(4-((isoindolin-5-ylmethyl)sulfonyl)phenyl)-3-((5-methoxypyridin-2-yl)methyl)urea] were 1780 nM and 3100 nM.
Turning to `CC(NC(=O)Nc1ccc(S(=O)(=O)Nc2ccc3c(c2)CNC3)cc1)c1cccc2ccccc12` (stereo not shown) [H1155, N-(isoindolin-5-yl)-4-(3-(1-(naphthalen-1-yl)ethyl)ureido) benzenesulfonamide], in experiment [1] (setting [3]), the EC50 was found to be 5.03 nM. For the same compound, the IC50 in experiment [2] (read-out: IC50 (Activity)) stood at 4.3 nM.
As to `CC(c1ccccc1)N(C)C(=O)Nc1ccc(S(=O)(=O)Cc2ccc3c(c2)CNC3)cc1` (stereo not shown) [H1206, 3-(4-((isoindolin-5-ylmethyl)sulfonyl)phenyl)-1-methyl-1-(1-phenylethyl)urea], the EC50 in experiment [1] (setting [3]) worked out at 252 nM. In addition, in experiment [2] (read-out: IC50 (Activity)), the IC50 stood at 262 nM.
Consider `C[C@H](NC(=O)Nc1ccc(S(=O)(=O)Nc2ccc3[nH]ccc3c2)cc1)c1cccc(Cl)c1Cl` [H0991, (S)-4-(3-(1-(2,3-dichlorophenyl)ethyl)ureido)-N-(1H-indol-5-yl)benzenesulfonamide], for which the EC50 in experiment [1] (setting [3]) was determined as 66.8 nM. Also, the IC50 in experiment [2] (read-out: IC50 (Activity)) is 146 nM.
In the case of `CCNC(=O)Nc1ccc(S(=O)(=O)Cc2ccc3c(c2)CNC3)cc1` [H1180, 1-ethyl-3-(4-((isoindolin-5-ylmethyl)sulfonyl)phenyl)urea], in experiment [1] (setting [3]), the EC50 was 315 nM. Also, the IC50 in experiment [2] (read-out: IC50 (Activity)) was found to be 14700 nM.
Take `Cc1ccc(CS(=O)(=O)c2ccc(NC(=O)N[C@@H](C)c3cccc(Cl)c3Cl)cc2)cc1` [H0964, (S)-1-(1-(2,3-dichlorophenyl)ethyl)-3-(4-((4-methylbenzyl)sulfonyl)phenyl)urea]: in experiment [1] (setting [3]), the EC50 was 2480 nM. In addition, the IC50 in experiment [2] (read-out: IC50 (Activity)) was 4170 nM.
On the same counts, the results for `O=C(NC(=O)c1cc(N2CCOCC2)ccc1Cl)Nc1ccc(S(=O)(=O)Cc2ccc3c(c2)CNC3)cc1` [H1249, 2-chloro-N-((4-((isoindolin-5-ylmethyl)sulfonyl)phenyl)carbamoyl)-5-morpholinobenzamide] are 1630 nM and 3290 nM.
